One series has as its system advanced malignancies. The settings on record: cited from earlier work.
For series [1] the following is noted: cited from earlier work.
Series [2] in a line: Plasma pharmacokinetics of SF1126 and hydrolysis products SF1101 and SF1174. In kind it is in vivo, human. The settings on record: human, in vivo.
For series [3] the following is noted: background statement, ref not given; cited from earlier work.
The next series has as its system Phospho-AKT (T308). The settings on record: CLL cells from a subset of patients, post-dose; cited from earlier work.

Structures are written as SMILES. Read-outs that look alike come from different tables or passages of the source.

The values below come from article PMC3826796 (European journal of cancer (Oxford, England : 1990), 2012).

Usually half-life stands for how long it takes for the measured level to halve.

`CCn1c(=O)c(-c2cc[nH]n2)cc2c(C)nc(N)nc21` [XL765]: in the series with advanced malignancies (Phase I, oral), the “Patients on study for ≥16 weeks” value was 11 and the “Patients on study for ≥24 weeks” value was 7.
Consider `CS(=O)(=O)N1CCN(Cc2cc3nc(-c4cccc5[nH]ncc45)nc(N4CCOCC4)c3s2)CC1` [GDC-0941], for which the “Patients with anti-tumour activity” value in the series on advanced malignancies (phase I, relapsed/refractory solid tumours) is 3 of 19.
Consider `COc1ccc(Cl)c(Nc2nc3ccccc3nc2NS(=O)(=O)c2cccc(NC(=O)C(C)(C)N)c2)c1` [XL147], for which the Partial response result in the series on advanced malignancies is on record as “PR in a NSCLC patient with a confirmed PI3K3CA mutation”. For the same molecule, the “Major DLT” value in series [1] was “skin rash”.
On to `O=c1cc(N2CCOCC2)oc2c(-c3ccccc3)cccc12` [SF1101, reference compound], for which the “Concentrations reached (Cmax versus dose)” value in series [2] is 20 to 30 µM. Moreover, the half-life was 1 to 2.4 h in series [2] (iv) and “short half-life” in series [3].
Consider `Nc1cc(C(F)(F)F)c(-c2cc(N3CCOCC3)nc(N3CCOCC3)n2)cn1` [BKM120], for which the “Patients on study for P8 months” value in the series with advanced malignancies (phase I) was 7. In addition, the “PR (number of patients)” value in the series on advanced malignancies (phase I, triple negative breast cancer (KRAS mutated) patient) is reported as 1. For the same molecule, in series [1] (phase I), the AEs entry was “grade 3 rash, abdominal pain and mood alterations”; the “Events observed at DLT” value is recorded as “Two grade 4 hyperglycaemic events”.
With `C=CCN(/C=C1/C(=O)O[C@H](COC)[C@@]2(C)C1=C(O)C(=O)C1=C2[C@H](OC(C)=O)C[C@]2(C)C(=O)CC[C@@H]12)CC=C` [PX-866], in series [1], the “Grade 3 adverse event” value is reported as 1 reversible grade 3 transminitis.
Turning to `COc1ccc(-c2ccc3ncc4c(c3c2)n(-c2ccc(N3CCNCC3)c(C(F)(F)F)c2)c(=O)n4C)cn1` [BGT226], in series [1] (phase I, advanced solid tumours), the AE profile entry is “nausea, vomiting and diarrhoea”.
On to `CC[C@H](Nc1ncnc2[nH]cnc12)c1nc2cccc(F)c2c(=O)n1-c1ccccc1` [CAL-101], for which, in the series with advanced malignancies (refractory non-Hodgkin's lymphoma and chronic lymphocytic leukaemia), the “Patients with durable responses of >6 months” value is given as 5. Moreover, the “Reduction of Phospho-AKT (T308)” value in the series on Phospho-AKT (T308) is listed as over 90%.
